Measurements taken from PubChem BioAssay (NCI).
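1) Cells in 96-well plates. 2) Compound, 48 h, 5 concentrations. 3) Linear interpolation between surrounding doses. 4) Unreached endpoint = highest concentration. GI50 is the concentration that inhibits growth by half. TGI: total growth inhibition.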

What was measured:
Assay in all cases: NCI-60 cell line screen, 48 h
NCI/ADR-RES ovarian = test system: NCI/ADR-RES ovarian
PC-3 prostate = test system: PC-3 prostate
OVCAR-8 ovarian = test system: OVCAR-8 ovarian
A498 renal = test system: A498 renal
MDA-MB-435 = test system: MDA-MB-435
SK-OV-3 ovarian = test system: SK-OV-3 ovarian
NCI-H522 lung = test system: NCI-H522 lung
SK-MEL-28 melanoma = test system: SK-MEL-28 melanoma
EKVX NSCLC = test system: EKVX NSCLC
HCT-116 colon = test system: HCT-116 colon
786-0 renal = test system: 786-0 renal
UO-31 renal = test system: UO-31 renal
UACC-62 melanoma = test system: UACC-62 melanoma
HS 578T breast = test system: HS 578T breast
MOLT-4 leukemia = test system: MOLT-4 leukemia
HT29 colon = test system: HT29 colon
KM12 colon = test system: KM12 colon
NCI-H226 lung = test system: NCI-H226 lung
T-47D breast = test system: T-47D breast
HOP-92 NSCLC = test system: HOP-92 NSCLC
CAKI-1 renal = test system: CAKI-1 renal
LOX IMVI melanoma = test system: LOX IMVI melanoma
NCI-H23 lung = test system: NCI-H23 lung
MDA-N = test system: MDA-N
IGROV1 ovarian = test system: IGROV1 ovarian
OVCAR-5 ovarian = test system: OVCAR-5 ovarian
SW-620 colon = test system: SW-620 colon
SF-295 CNS = test system: SF-295 CNS
HL-60(TB) leukemia = test system: HL-60(TB) leukemia
CCRF-CEM leukemia = test system: CCRF-CEM leukemia
U251 CNS = test system: U251 CNS
SF-268 CNS = test system: SF-268 CNS
SN12C renal = test system: SN12C renal
UACC-257 melanoma = test system: UACC-257 melanoma
DU-145 prostate = test system: DU-145 prostate
SF-539 CNS = test system: SF-539 CNS
SNB-75 CNS = test system: SNB-75 CNS
HCC-2998 colon = test system: HCC-2998 colon
HCT-15 colon = test system: HCT-15 colon
OVCAR-4 ovarian = test system: OVCAR-4 ovarian
TK-10 renal = test system: TK-10 renal
ACHN renal = test system: ACHN renal
NCI-H460 lung = test system: NCI-H460 lung
RXF 393 renal = test system: RXF 393 renal
HOP-62 NSCLC = test system: HOP-62 NSCLC
RPMI-8226 leukemia = test system: RPMI-8226 leukemia
A549 NSCLC = test system: A549 NSCLC
BT-549 breast = test system: BT-549 breast
MALME-3M melanoma = test system: MALME-3M melanoma
MCF7 breast = test system: MCF7 breast
COLO 205 colon = test system: COLO 205 colon
M14 melanoma = test system: M14 melanoma
OVCAR-3 ovarian = test system: OVCAR-3 ovarian
SK-MEL-2 melanoma = test system: SK-MEL-2 melanoma
SNB-19 CNS = test system: SNB-19 CNS
MDA-MB-231 breast = test system: MDA-MB-231 breast
K-562 leukemia = test system: K-562 leukemia

In the case of `COc1cc(C(=O)N2CCN(C=O)C2=S)cc(OC)c1OC`, the GI50 (NCI/ADR-RES ovarian) is reported as 36.1 µM, the TGI (NCI/ADR-RES ovarian) is reported as > 100 µM and the GI50 (PC-3 prostate) is reported as 22.2 µM. The TGI (PC-3 prostate) was 58.2 µM, the GI50 (OVCAR-8 ovarian) was 24 µM and the TGI (OVCAR-8 ovarian) was 65.2 µM. For the same compound, the GI50 (A498 renal) was 20.5 µM, the TGI (A498 renal) was 37.6 µM and the GI50 (MDA-MB-435) was 15.5 µM. The TGI (MDA-MB-435) was 30.8 µM, the GI50 (SK-OV-3 ovarian) was 21.9 µM and the TGI (SK-OV-3 ovarian) was 72.8 µM. The GI50 (NCI-H522 lung) was 5.8 µM, the TGI (NCI-H522 lung) was 20.8 µM and the GI50 (SK-MEL-28 melanoma) was 29.5 µM. For the same compound, the TGI (SK-MEL-28 melanoma) was > 100 µM, the GI50 (EKVX NSCLC) was 31.8 µM and the TGI (EKVX NSCLC) was 97.6 µM. For the same compound, the GI50 (HCT-116 colon) was 35.6 µM, the TGI (HCT-116 colon) was > 100 µM and the GI50 (786-0 renal) was 12.7 µM. It also gave a TGI (786-0 renal) of 28 µM, a TGI (UO-31 renal) of 3.36 µM and a GI50 (UACC-62 melanoma) of 15.8 µM. The TGI (UACC-62 melanoma) was 30.4 µM, the GI50 (HS 578T breast) was 27.6 µM and the TGI (HS 578T breast) was > 100 µM. It also gave a GI50 (MOLT-4 leukemia) of 29.4 µM, a TGI (MOLT-4 leukemia) of 73.8 µM and a GI50 (HT29 colon) of 26.7 µM. The TGI (HT29 colon) was 66.4 µM, the GI50 (KM12 colon) was 14.4 µM and the TGI (KM12 colon) was 29.5 µM. It also gave a GI50 (NCI-H226 lung) of 35.9 µM, a TGI (NCI-H226 lung) of 84.6 µM and a GI50 (T-47D breast) of 20.7 µM. For the same compound, the TGI (T-47D breast) was 90.6 µM, the GI50 (HOP-92 NSCLC) was 9.26 µM and the TGI (HOP-92 NSCLC) was 26.2 µM. For the same compound, the GI50 (CAKI-1 renal) was 13.6 µM, the TGI (CAKI-1 renal) was 26.7 µM and the GI50 (LOX IMVI melanoma) was 16.4 µM. The TGI (LOX IMVI melanoma) was 33.5 µM, the GI50 (NCI-H23 lung) was 25.9 µM and the TGI (NCI-H23 lung) was 62 µM. It also gave a GI50 (MDA-N) of 17.9 µM, a TGI (MDA-N) of 34.5 µM and a GI50 (IGROV1 ovarian) of 21.9 µM. The TGI (IGROV1 ovarian) was 57.3 µM, the GI50 (OVCAR-5 ovarian) was 48.5 µM and the TGI (OVCAR-5 ovarian) was > 100 µM. The GI50 (SW-620 colon) was 26.8 µM, the TGI (SW-620 colon) was 70 µM and the GI50 (SF-295 CNS) was 29.3 µM. The TGI (SF-295 CNS) was > 100 µM, the GI50 (HL-60(TB) leukemia) was 23.4 µM and the TGI (HL-60(TB) leukemia) was 44.3 µM. For the same compound, the GI50 (CCRF-CEM leukemia) was 18.3 µM, the TGI (CCRF-CEM leukemia) was 49 µM and the GI50 (U251 CNS) was 16.4 µM. The TGI (U251 CNS) was 37.8 µM, the GI50 (SF-268 CNS) was 21.4 µM and the TGI (SF-268 CNS) was 43.7 µM. The GI50 (SN12C renal) was 20.2 µM, the TGI (SN12C renal) was 40.2 µM and the GI50 (UACC-257 melanoma) was 19.9 µM. For the same compound, the TGI (UACC-257 melanoma) was 45.4 µM, the GI50 (DU-145 prostate) was 19.6 µM and the TGI (DU-145 prostate) was 56.6 µM. It also gave a GI50 (SF-539 CNS) of 21.3 µM, a TGI (SF-539 CNS) of 43.2 µM and a GI50 (SNB-75 CNS) of 10.9 µM. It also gave a TGI (SNB-75 CNS) of 34.6 µM, a GI50 (HCC-2998 colon) of 19.8 µM and a TGI (HCC-2998 colon) of 38.7 µM. The GI50 (HCT-15 colon) was 25.6 µM, the TGI (HCT-15 colon) was 73.6 µM and the GI50 (OVCAR-4 ovarian) was 24.1 µM. For the same compound, the TGI (OVCAR-4 ovarian) was 58.9 µM, the GI50 (TK-10 renal) was 17.1 µM and the TGI (TK-10 renal) was 36.7 µM. For the same compound, the GI50 (ACHN renal) was 20.1 µM, the TGI (ACHN renal) was 44.1 µM and the GI50 (NCI-H460 lung) was 34 µM. The TGI (NCI-H460 lung) was > 100 µM, the GI50 (RXF 393 renal) was 16.1 µM and the TGI (RXF 393 renal) was 32.4 µM. For the same compound, the GI50 (HOP-62 NSCLC) was 20 µM, the TGI (HOP-62 NSCLC) was 61.1 µM and the TGI (RPMI-8226 leukemia) was 42.3 µM. It also gave a GI50 (A549 NSCLC) of 33.2 µM, a TGI (A549 NSCLC) of 88.8 µM and a GI50 (BT-549 breast) of 25 µM. It also gave a TGI (BT-549 breast) of 62.4 µM, a GI50 (MALME-3M melanoma) of 24.3 µM and a TGI (MALME-3M melanoma) of 43.3 µM. For the same compound, the GI50 (MCF7 breast) was 5.49 µM, the TGI (MCF7 breast) was 24.6 µM and the GI50 (COLO 205 colon) was 20.2 µM. For the same compound, the TGI (COLO 205 colon) was 39.4 µM, the GI50 (M14 melanoma) was 20.6 µM and the TGI (M14 melanoma) was 41.6 µM. The GI50 (OVCAR-3 ovarian) was 16.9 µM, the TGI (OVCAR-3 ovarian) was 33.6 µM and the GI50 (SK-MEL-2 melanoma) was 19.9 µM. It also gave a TGI (SK-MEL-2 melanoma) of 42 µM, a GI50 (SNB-19 CNS) of 28.5 µM and a TGI (SNB-19 CNS) of 70.4 µM. For the same compound, the GI50 (MDA-MB-231 breast) was 21.5 µM, the TGI (MDA-MB-231 breast) was 57.9 µM and the GI50 (K-562 leukemia) was 30.8 µM. The TGI (K-562 leukemia) was > 100 µM.
